System: 171881-019-R-J1-PDC multicell spheroid viability
Assay: Anticancer human tumor 171881-019-R-J1-PDC patient-derived invasive breast carcinoma cell line growth inhibition [IpAb]
Settings: for IC50: curve of first compound; for viability, T/C: stronger effect = lower value
Summary of the method: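 Combinations with ipatasertib or abemaciclib were tested on tumour spheroids holding HUVEC (25%) and MSC (15%) alongside 60% malignant cells. Top concentration was at or near clinical Cmax (10 microM if undefined), descending in half-log steps.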

[1] = second compound 0.01 µM, first compound 0.00316 µM
[2] = second compound 0.01 µM, first compound 0.01 µM
[3] = second compound 0.01 µM, first compound 0.0316 µM
[4] = second compound 0.01 µM, first compound 0.1 µM
[5] = second compound 0.0316 µM, first compound 0.00316 µM
[6] = second compound 0.0316 µM, first compound 0.01 µM
[7] = second compound 0.0316 µM, first compound 0.0316 µM
[8] = second compound 0.0316 µM, first compound 0.1 µM
[9] = second compound 0.1 µM, first compound 0.00316 µM
[10] = second compound 0.1 µM, first compound 0.01 µM
[11] = second compound 0.1 µM, first compound 0.0316 µM
[12] = second compound 0.1 µM, first compound 0.1 µM
[13] = second compound 0.316 µM, first compound 0.00316 µM
[14] = second compound 0.316 µM, first compound 0.01 µM
[15] = second compound 0.316 µM, first compound 0.0316 µM
[16] = second compound 0.316 µM, first compound 0.1 µM
[17] = second compound 1 µM, first compound 0.00316 µM
[18] = second compound 1 µM, first compound 0.01 µM
[19] = second compound 1 µM, first compound 0.0316 µM
[20] = second compound 1 µM, first compound 0.1 µM
[21] = second compound 0.01 µM, first compound 0.316 µM
[22] = second compound 0.01 µM, first compound 1 µM
[23] = second compound 0.01 µM, first compound 3.16 µM
[24] = second compound 0.01 µM, first compound 10 µM
[25] = second compound 0.0316 µM, first compound 0.316 µM
[26] = second compound 0.0316 µM, first compound 1 µM
[27] = second compound 0.0316 µM, first compound 3.16 µM
[28] = second compound 0.0316 µM, first compound 10 µM
[29] = second compound 0.1 µM, first compound 0.316 µM
[30] = second compound 0.1 µM, first compound 1 µM
[31] = second compound 0.1 µM, first compound 3.16 µM
[32] = second compound 0.1 µM, first compound 10 µM
[33] = second compound 0.316 µM, first compound 0.316 µM
[34] = second compound 0.316 µM, first compound 1 µM
[35] = second compound 0.316 µM, first compound 3.16 µM
[36] = second compound 0.316 µM, first compound 10 µM
[37] = second compound 1 µM, first compound 0.316 µM
[38] = second compound 1 µM, first compound 1 µM
[39] = second compound 1 µM, first compound 3.16 µM
[40] = second compound 1 µM, first compound 10 µM
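Note: spheroids exposed to the agents for seven days before readout.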

Compound	IC50 (second compound 0.01 µM)	IC50 (second compound 0.0316 µM)	IC50 (second compound 0.1 µM)	IC50 (second compound 0.316 µM)	IC50 (second compound 1 µM)	viability, T/C [3]	viability, T/C [4]	viability, T/C [7]	viability, T/C [8]	viability, T/C [11]	viability, T/C [12]	viability, T/C [15]	viability, T/C [16]	viability, T/C [19]	viability, T/C [20]	viability, T/C [21]	viability, T/C [22]	viability, T/C [25]	viability, T/C [26]	viability, T/C [29]	further results
CC(C)n1nc(-c2ccc3oc(N)nc3c2)c2c(N)ncnc21 + CCN1CCN(Cc2ccc(Nc3ncc(F)c(-c4cc(F)c5nc(C)n(C(C)C)c5c4)n3)nc2)CC1	0.00563 µM	0.00598 µM	0.0056 µM	0.00625 µM	0.00954 µM	4.34%	2.21%	5.1%	2.53%	5.52%	2.76%	9.75%	3.47%	21.4%	10.4%						viability, T/C (second compound 0.01 µM, first compound 0.000316 µM): 99%; viability, T/C (second compound 0.01 µM, first compound 0.001 µM): 102%; viability, T/C [1]: 73.9%; viability, T/C [2]: 25.7%; viability, T/C (second compound 0.0316 µM, first compound 0.000316 µM): 97.9%; viability, T/C (second compound 0.0316 µM, first compound 0.001 µM): 112%; viability, T/C [5]: 80.5%; viability, T/C [6]: 24.8%; viability, T/C (second compound 0.1 µM, first compound 0.000316 µM): 114%; viability, T/C (second compound 0.1 µM, first compound 0.001 µM): 103%; viability, T/C [9]: 75.8%; viability, T/C [10]: 24.3%; viability, T/C (second compound 0.316 µM, first compound 0.000316 µM): 131%; viability, T/C (second compound 0.316 µM, first compound 0.001 µM): 106%; viability, T/C [13]: 81.4%; viability, T/C [14]: 28.5%; viability, T/C (second compound 1 µM, first compound 0.000316 µM): 140%; viability, T/C (second compound 1 µM, first compound 0.001 µM): 125%; viability, T/C [17]: 89.8%; viability, T/C [18]: 48.6%
CC1(C)CCC(CN2CCN(c3ccc(C(=O)NS(=O)(=O)c4ccc(NCC5CCOCC5)c([N+](=O)[O-])c4)c(Oc4cnc5[nH]ccc5c4)c3)CC2)=C(c2ccc(Cl)cc2)C1 + CCN1CCN(Cc2ccc(Nc3ncc(F)c(-c4cc(F)c5nc(C)n(C(C)C)c5c4)n3)nc2)CC1	5.42 µM	6.19 µM	5.54 µM	5.97 µM	6.55 µM	84.5%	79%	89.7%	86.7%	109%	105%	120%	117%	138%	139%	76.6%	72.4%	86.8%	70.4%	98.9%	viability, T/C [23]: 83.4%; viability, T/C [24]: 16.6%; viability, T/C [27]: 89.3%; viability, T/C [28]: 25.3%; viability, T/C [30]: 89%; viability, T/C [31]: 79%; viability, T/C [32]: 22.9%; viability, T/C [33]: 109%; viability, T/C [34]: 99.7%; viability, T/C [35]: 89.2%; viability, T/C [36]: 21.1%; viability, T/C [37]: 136%; viability, T/C [38]: 128%; viability, T/C [39]: 104%; viability, T/C [40]: 18.4%
CCCS(=O)(=O)Nc1ccc(F)c(C(=O)c2c[nH]c3ncc(-c4ccc(Cl)cc4)cc23)c1F + CCN1CCN(Cc2ccc(Nc3ncc(F)c(-c4cc(F)c5nc(C)n(C(C)C)c5c4)n3)nc2)CC1	> 10 µM	> 10 µM	> 10 µM	> 10 µM	> 10 µM	103%	80.8%	96.1%	88.5%	113%	94.9%	123%	129%	143%	143%	98.6%	87%	90.9%	91.6%	107%	viability, T/C [23]: 82.9%; viability, T/C [24]: 83.9%; viability, T/C [27]: 85.4%; viability, T/C [28]: 92.3%; viability, T/C [30]: 98.4%; viability, T/C [31]: 95.5%; viability, T/C [32]: 94.1%; viability, T/C [33]: 112%; viability, T/C [34]: 113%; viability, T/C [35]: 106%; viability, T/C [36]: 99.2%; viability, T/C [37]: 141%; viability, T/C [38]: 137%; viability, T/C [39]: 130%; viability, T/C [40]: 119%
COc1c(OCCCN2CCOCC2)ccc2c3n(c(=NC(=O)c4cnc(N)nc4)nc12)CCN3 + CCN1CCN(Cc2ccc(Nc3ncc(F)c(-c4cc(F)c5nc(C)n(C(C)C)c5c4)n3)nc2)CC1	0.0195 µM	0.0211 µM	0.0203 µM	0.0235 µM	0.0315 µM	31.9%	5.33%	38.7%	4.99%	31.9%	5.31%	45.3%	7.2%	56.6%	17.2%	1%	1.29%	1%	1.5%	0.99%	viability, T/C [1]: 115%; viability, T/C [2]: 76.6%; viability, T/C [5]: 113%; viability, T/C [6]: 76.2%; viability, T/C [9]: 115%; viability, T/C [10]: 80.2%; viability, T/C [30]: 1.13%; viability, T/C [13]: 110%; viability, T/C [14]: 76.1%; viability, T/C [33]: 1.95%; viability, T/C [34]: 1.08%; viability, T/C [17]: 121%; viability, T/C [18]: 82.6%; viability, T/C [37]: 4.08%; viability, T/C [38]: 2%
Cc1nc(NC(=O)N2CCCC2C(N)=O)sc1-c1ccnc(C(C)(C)C(F)(F)F)c1 (stereo not given) + CCN1CCN(Cc2ccc(Nc3ncc(F)c(-c4cc(F)c5nc(C)n(C(C)C)c5c4)n3)nc2)CC1	0.783 µM	0.733 µM	0.823 µM	0.977 µM	1.56 µM	109%	112%	118%	108%	117%	112%	130%	112%	137%	117%	72%	44.7%	75.7%	40.9%	75.9%	viability, T/C [23]: 15.7%; viability, T/C [24]: 1.42%; viability, T/C [27]: 13.5%; viability, T/C [28]: 2.7%; viability, T/C [30]: 44.9%; viability, T/C [31]: 18.3%; viability, T/C [32]: 2.71%; viability, T/C [33]: 85.7%; viability, T/C [34]: 47.2%; viability, T/C [35]: 23%; viability, T/C [36]: 4.63%; viability, T/C [37]: 89.8%; viability, T/C [38]: 64.1%; viability, T/C [39]: 29.7%; viability, T/C [40]: 8.19%
